Values joined by “and” are separate entries in the source; they are usually repeats but may differ in a detail not shown here. Equal entries are not always repeated. Inconclusive results and toxic doses are left out.
Test system: CD2F1 mice, L1210 leukemia ip, survival T/C
Test: NCI In Vivo Anticancer Drug Screen. Data for tumor model L1210 Leukemia (intraperitoneal) in CD2F1 (CDF1) mice
Settings: higher = longer survival
Outline: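 Read-out first: treated-group measurement over vehicle-control measurement, expressed as a ratio. Animals bore a transplanted tumor line and were dosed with compound or vehicle.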

[1] = endpoint: mean survival time, dose: 100.0 mg/kg/injection, schedule: Q01DX001 (ip), vehicle: carboxymethylcellulose (CMC)
[2] = endpoint: mean survival time, dose: 200.0 mg/kg/injection, schedule: Q01DX001 (ip), vehicle: carboxymethylcellulose (CMC)
[3] = endpoint: mean survival time, dose: 400.0 mg/kg/injection, schedule: Q01DX001 (ip), vehicle: carboxymethylcellulose (CMC)
[4] = endpoint: mean survival time, dose: 100.0 mg/kg/injection, schedule: Q04DX002 (ip), vehicle: saline with Tween-80
[5] = endpoint: mean survival time, dose: 200.0 mg/kg/injection, schedule: Q04DX002 (ip), vehicle: saline with Tween-80
[6] = endpoint: mean survival time, dose: 25.0 mg/kg/injection, schedule: Q04DX002 (ip), vehicle: saline with Tween-80
[7] = endpoint: mean survival time, dose: 50.0 mg/kg/injection, schedule: Q04DX002 (ip), vehicle: saline with Tween-80
[8] = endpoint: mean survival time, dose: 100.0 mg/kg/injection, schedule: Q04DX003 (ip), vehicle: saline
[9] = endpoint: mean survival time, dose: 200.0 mg/kg/injection, schedule: Q04DX003 (ip), vehicle: saline
[10] = endpoint: mean survival time, dose: 400.0 mg/kg/injection, schedule: Q04DX003 (ip), vehicle: saline
[11] = endpoint: mean survival time, dose: 100.0 mg/kg/injection, schedule: Q04DX003 (ip), vehicle: saline with Tween-80
[12] = endpoint: mean survival time, dose: 200.0 mg/kg/injection, schedule: Q04DX003 (ip), vehicle: saline with Tween-80
[13] = endpoint: mean survival time, dose: 400.0 mg/kg/injection, schedule: Q04DX003 (ip), vehicle: saline with Tween-80
[14] = endpoint: mean survival time, dose: 12.5 mg/kg/injection, schedule: Q01DX009 (ip), vehicle: saline with Tween-80
[15] = endpoint: mean survival time, dose: 25.0 mg/kg/injection, schedule: Q01DX009 (ip), vehicle: saline with Tween-80
[16] = endpoint: mean survival time, dose: 400.0 mg/kg/injection, schedule: Q04DX002 (ip), vehicle: saline with Tween-80
[17] = endpoint: mean survival time, dose: 100.0 mg/kg/injection, schedule: Q01DX009 (ip), vehicle: saline with Tween-80
[18] = endpoint: mean survival time, dose: 200.0 mg/kg/injection, schedule: Q01DX009 (ip), vehicle: saline with Tween-80
[19] = endpoint: mean survival time, dose: 400.0 mg/kg/injection, schedule: Q01DX009 (ip), vehicle: saline with Tween-80

CNC(=O)Oc1ccc(S(=O)(=O)c2ccc(OC(=O)NC)cc2)cc1
T/C (endpoint: median survival time, dose: 12.5 mg/kg/injection, schedule: Q01DX009 (ip), vehicle: saline with Tween-80): 103 % of control | T/C (endpoint: median survival time, dose: 25.0 mg/kg/injection, schedule: Q01DX009 (ip), vehicle: saline with Tween-80): 115 % of control and 112 % of control | T/C (endpoint: median survival time, dose: 43.0 mg/kg/injection, schedule: Q01DX005 (ip), vehicle: saline with Tween-80): 113 % of control | T/C (endpoint: median survival time, dose: 43.0 mg/kg/injection, schedule: Q01DX009 (ip), vehicle: saline with Tween-80): 102 % of control | T/C (endpoint: median survival time, dose: 50.0 mg/kg/injection, schedule: Q01DX009 (ip), vehicle: saline with Tween-80): 120 % of control | T/C (endpoint: median survival time, dose: 72.0 mg/kg/injection, schedule: Q01DX005 (ip), vehicle: saline with Tween-80): 108 % of control and 109 % of control | T/C (endpoint: median survival time, dose: 72.0 mg/kg/injection, schedule: Q01DX009 (ip), vehicle: saline with Tween-80): 101 % of control | T/C (endpoint: median survival time, dose: 100.0 mg/kg/injection, schedule: Q01DX009 (ip), vehicle: saline with Tween-80): 122 % of control | T/C (endpoint: median survival time, dose: 120.0 mg/kg/injection, schedule: Q01DX005 (ip), vehicle: saline with Tween-80): 109 % of control and 112 % of control | T/C (endpoint: median survival time, dose: 120.0 mg/kg/injection, schedule: Q01DX009 (ip), vehicle: saline with Tween-80): 106 % of control | T/C (endpoint: median survival time, dose: 200.0 mg/kg/injection, schedule: Q01DX005 (ip), vehicle: saline with Tween-80): 104 % of control and 109 % of control | T/C (endpoint: median survival time, dose: 200.0 mg/kg/injection, schedule: Q01DX009 (ip), vehicle: saline with Tween-80): 151 % of control | T/C (endpoint: median survival time, dose: 333.0 mg/kg/injection, schedule: Q01DX005 (ip), vehicle: saline with Tween-80): 109 % of control

CCOC(=O)Nc1cnc2nc[nH]c2c1N(C)C
T/C [1]: 104 % of control | T/C [2]: 104 % of control | T/C [3]: 124 % of control

CCOC(=O)C(S(C)(=O)=O)S(C)(=O)=O
T/C (endpoint: mean survival time, dose: 75.0 mg/kg/injection, schedule: Q01DX001 (ip), vehicle: saline with Tween-80): 97 % of control | T/C (endpoint: mean survival time, dose: 150.0 mg/kg/injection, schedule: Q01DX001 (ip), vehicle: saline with Tween-80): 108 % of control | T/C (endpoint: mean survival time, dose: 300.0 mg/kg/injection, schedule: Q01DX001 (ip), vehicle: saline with Tween-80): 98 % of control

CC(C)c1ccc2c(c1)CC[C@H]1[C@](C)(CN=C(N)CCl)CCC[C@]21C
T/C [4]: 102 % of control | T/C [5]: 95 % of control

COc1cc([N+](=O)[O-])ccc1NC=O
T/C [6]: 103 % of control | T/C [7]: 103 % of control | T/C [4]: 90 % of control

COC(=O)CCC([NH-])C(=O)O.COC(=O)CCC([NH-])C(=O)O.[NH-]C1CCCCC1[NH-].[Pt+4] (stereo not given)
T/C (endpoint: median survival time, dose: 6.25 mg/kg/injection, schedule: Q04DX003 (ip), vehicle: saline): 100 % of control | T/C (endpoint: median survival time, dose: 12.5 mg/kg/injection, schedule: Q04DX003 (ip), vehicle: saline): 96 % of control | T/C (endpoint: median survival time, dose: 25.0 mg/kg/injection, schedule: Q04DX003 (ip), vehicle: saline): 97 % of control | T/C (endpoint: median survival time, dose: 50.0 mg/kg/injection, schedule: Q04DX003 (ip), vehicle: saline): 108 % of control | T/C (endpoint: median survival time, dose: 100.0 mg/kg/injection, schedule: Q04DX003 (ip), vehicle: saline): 110 % of control

CCCCCCCCCCCCCCCCCc1nnc(-c2ccccc2O)o1
T/C [6]: 100 % of control | T/C [7]: 103 % of control | T/C [4]: 108 % of control | T/C [5]: 112 % of control

NC(CCSc1ccccc1)C(=O)O (stereo not given)
T/C [8]: 104 % of control | T/C [9]: 102 % of control | T/C [10]: 88 % of control

CSc1ccccc1C(=O)O
T/C [11]: 102 % of control and 95 % of control | T/C [12]: 96 % of control and 101 % of control | T/C [13]: 102 % of control and 101 % of control

OCC1CCCCCCC1
T/C (endpoint: mean survival time, dose: 50.0 mg/kg/injection, schedule: Q01DX001 (ip), vehicle: carboxymethylcellulose (CMC)): 100 % of control | T/C [1]: 100 % of control | T/C [2]: 102 % of control | T/C [3]: 96 % of control

CC/C(C)=C1\OC(=O)C(C)C(O)C(Cc2cccnc2)NC(=O)C(NC(=O)c2ncccc2O)C(C)OC1=O (stereo not given)
T/C (endpoint: mean survival time, dose: 3.13 mg/kg/injection, schedule: Q01DX009 (ip), vehicle: saline with Tween-80): 96 % of control | T/C (endpoint: mean survival time, dose: 6.25 mg/kg/injection, schedule: Q01DX009 (ip), vehicle: saline with Tween-80): 95 % of control | T/C [14]: 96 % of control | T/C [15]: 96 % of control

O=C(/C=C/c1ccccc1)Nc1cccc2ccccc12
T/C [4]: 90 % of control | T/C [5]: 105 % of control | T/C [16]: 94 % of control

O=C1OC(=O)C2C1OC1C(=O)OC(=O)C12 (stereo not given)
T/C (endpoint: mean survival time, dose: 6.25 mg/kg/injection, schedule: Q04DX002 (ip), vehicle: saline): 103 % of control | T/C (endpoint: mean survival time, dose: 12.5 mg/kg/injection, schedule: Q04DX002 (ip), vehicle: saline): 106 % of control | T/C (endpoint: mean survival time, dose: 25.0 mg/kg/injection, schedule: Q04DX002 (ip), vehicle: saline): 95 % of control

CCc1c2c(nc3ccc(OC(=O)N4CCC(N5CCCCC5)CC4)cc13)-c1cc3c(c(=O)n1C2)COC(=O)[C@]3(O)CC
T/C (endpoint: median survival time, dose: 26.4 mg/kg/injection, schedule: Q04HX004 (iv), vehicle: water): 177 % of control | T/C (endpoint: median survival time, dose: 39.6 mg/kg/injection, schedule: Q04DX002 (ip), vehicle: water): 206 % of control | T/C (endpoint: median survival time, dose: 39.6 mg/kg/injection, schedule: Q04HX004 (iv), vehicle: water): 192 % of control | T/C (endpoint: median survival time, dose: 59.3 mg/kg/injection, schedule: Q04DX002 (ip), vehicle: water): 231 % of control | T/C (endpoint: median survival time, dose: 59.3 mg/kg/injection, schedule: Q04HX004 (iv), vehicle: water): 193 % of control | T/C (endpoint: median survival time, dose: 89.0 mg/kg/injection, schedule: Q04DX002 (ip), vehicle: water): 500 % of control | T/C (endpoint: median survival time, dose: 89.0 mg/kg/injection, schedule: Q04HX004 (iv), vehicle: water): 209 % of control

CC1=C(N2CC2)C(=O)c2c(COC(N)=O)c3n(c2C1=O)CCC3OC(N)=O (stereo not given)
T/C (endpoint: mean survival time, dose: 1.5 mg/kg/injection, schedule: Q01DX001 (ip), vehicle: distilled water + Tween-80): 108 % of control | T/C (endpoint: mean survival time, dose: 3.0 mg/kg/injection, schedule: Q01DX001 (ip), vehicle: distilled water + Tween-80): 109 % of control and 112 % of control | T/C (endpoint: mean survival time, dose: 6.0 mg/kg/injection, schedule: Q01DX001 (ip), vehicle: distilled water + Tween-80): 114 % of control and 121 % of control | T/C (endpoint: mean survival time, dose: 12.0 mg/kg/injection, schedule: Q01DX001 (ip), vehicle: distilled water + Tween-80): 120 % of control | T/C (endpoint: mean survival time, dose: 48.0 mg/kg/injection, schedule: Q01DX001 (ip), vehicle: distilled water + Tween-80): 120 % of control

CC(C)CCCC(C)C1CCC2C3CC=C4CC(C(=O)O)CCC4C3CCC12C (stereo not given)
T/C [11]: 92 % of control | T/C [12]: 88 % of control | T/C [13]: 88 % of control

COC(=O)c1nc2ccccc2nc1C(=O)OC
T/C [17]: 103 % of control | T/C [11]: 100 % of control | T/C [18]: 103 % of control | T/C [12]: 94 % of control | T/C [19]: 102 % of control | T/C [13]: 96 % of control

O=S(=O)(c1cc(Cl)ccc1O)c1cc(Cl)ccc1O
T/C (endpoint: mean survival time, dose: 100.0 mg/kg/injection, schedule: Q01DX001 (ip), vehicle: saline): 103 % of control | T/C (endpoint: mean survival time, dose: 200.0 mg/kg/injection, schedule: Q01DX001 (ip), vehicle: saline): 100 % of control | T/C (endpoint: mean survival time, dose: 400.0 mg/kg/injection, schedule: Q01DX001 (ip), vehicle: saline): 100 % of control

C[N+](C)(C)/N=C/C=C/c1ccccc1
T/C [14]: 104 % of control | T/C [15]: 104 % of control | T/C (endpoint: mean survival time, dose: 50.0 mg/kg/injection, schedule: Q01DX009 (ip), vehicle: saline with Tween-80): 96 % of control and 107 % of control

COc1ccc(CNC(C#N)c2ccccc2)cc1OC (stereo not given)
T/C [17]: 97 % of control | T/C [18]: 104 % of control | T/C [19]: 97 % of control

CC(=O)NC1(C(=O)O)SCCCS1
T/C [7]: 92 % of control | T/C [4]: 100 % of control | T/C [16]: 89 % of control

COc1ccc(/C=N/NC(=S)Nc2ccccn2)cc1OC
T/C [6]: 92 % of control | T/C [7]: 92 % of control | T/C [4]: 88 % of control and 95 % of control

CN(CC(=O)C(C)(C)C)c1ccccc1
T/C [8]: 103 % of control | T/C [9]: 97 % of control | T/C [10]: 103 % of control

c1ccc(C2COCC2c2ccccc2)cc1 (stereo not given)
T/C (endpoint: mean survival time, dose: 100.0 mg/kg/injection, schedule: Q01DX001 (ip), vehicle: saline with Tween-80): 86 % of control | T/C (endpoint: mean survival time, dose: 200.0 mg/kg/injection, schedule: Q01DX001 (ip), vehicle: saline with Tween-80): 92 % of control | T/C (endpoint: mean survival time, dose: 400.0 mg/kg/injection, schedule: Q01DX001 (ip), vehicle: saline with Tween-80): 93 % of control
